Laboratory results published in US10188634B2, “3-(3H-imidazo[4,5-C]pyridin-2-yl)-1 H-pyrazolo[4,3-B]pyridines and therapeutic uses thereof” (Samumed, LLC, priority 2015, dated 2019).

How the values were obtained:
SW480 colon cancer cells = assay: Cell viability assay (CellTiter-Blue) in SW480 colon cancer cells; format: cell-based; conditions: Homo sapiens, 96 h; for inhibition at 10 µM: four days, CellTiter-Blue, read-out: percent inhibition at 10 μM (given for EC50 of >10 μM); for EC50: four days incubation, CellTiter-Blue cell viability
Method in brief: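 About 2×10^3 SW480 colon cancer cells per well were exposed to compound (8-point 1:3 dilutions, 10 μM to 0.004 μM) for four days at 37 °C. Viability was read by CellTiter-Blue resazurin reduction (~3 h, Ex 560/Em 590). EC50 from nonlinear regression; above 10 μM, % inhibition at 10 μM is reported.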

[1] = system: LL29 cells (primary human fibroblasts derived from IPF patients) treated with TGF-β1, α-smooth muscle actin; assay: Inhibition of the fibrotic process: αSMA staining in TGF-β1 treated primary human fibroblasts from IPF patients (LL29 cells); format: cell-based; conditions: Fibroblast, 96 h; for EC50: LL29 cells treated with TGF-β1 (20 ng/mL), 4 days; for inhibition at 10 µM: LL29 cells treated with TGF-β1, 4 days, read-out: percent inhibition in brackets (given for EC50 >10 μM)

Structure (SMILES) | EC50 (SW480 colon cancer cells) [µM] | inhibition at 10 µM (SW480 colon cancer cells) [%] | EC50 [1] [µM] | inhibition at 10 µM [1] [%]
Fc1cccc(-c2cncc3[nH]c(-c4n[nH]c5ccc(-c6cncc(OC7CCNCC7)c6)nc45)nc23)c1 [Compound 484, 3-(7-(3-Fluorophenyl)-3H-imidazo[4,5-c]pyridin-2-yl)-5-(5-(piperidin-4-yloxy)pyridin-3-yl)-1H-pyrazolo[4,3-b]pyridine] | > 10 | 11.7 | 1.42 | –
c1cncc(-c2cncc3[nH]c(-c4n[nH]c5ccc(-c6cncc(OC7CCCCC7)c6)nc45)nc23)c1 [Compound 531, 5-(5-(Cyclohexyloxy)pyridin-3-yl)-3-(7-(pyridin-3-yl)-3H-imidazo[4,5-c]pyridin-2-yl)-1H-pyrazolo[4,3-b]pyridine] | > 10 | 15.5 | 3.2 | –
Cn1cc(-c2ccc3[nH]nc(-c4nc5c(-c6cccs6)cncc5[nH]4)c3n2)cn1 [Compound 656, 5-(1-Methyl-1H-pyrazol-4-yl)-3-(7-(thiophen-2-yl)-3H-imidazo[4,5-c]pyridin-2-yl)-1H-pyrazolo[4,3-b]pyridine] | > 10 | 1.3 | > 10 | 46.4
CN(C)CCOc1cncc(-c2ccc3[nH]nc(-c4nc5c(-c6cccs6)cncc5[nH]4)c3n2)c1 [Compound 663, N,N-Dimethyl-2-((5-(3-(7-(thiophen-2-yl)-3H-imidazo[4,5-c]pyridin-2-yl)-1H-pyrazolo[4,3-b]pyridin-5-yl)pyridin-3-yl)oxy)ethan-1-amine] | > 10 | 15.5 | 1.22 | –
Cc1ccc(-c2cncc3[nH]c(-c4n[nH]c5ccc(C6=CCNCC6)nc45)nc23)s1 [Compound 686, 3-(7-(5-Methylthiophen-2-yl)-3H-imidazo[4,5-c]pyridin-2-yl)-5-(1,2,3,6-tetrahydropyridin-4-yl)-1H-pyrazolo[4,3-b]pyridine] | 6.11 | – | 4.91 | –
Cn1cc(-c2ccc3[nH]nc(-c4nc5c(-c6cc(F)cc(CNS(C)(=O)=O)c6)cncc5[nH]4)c3n2)cn1 [Compound 720, N-(3-Fluoro-5-(2-(5-(1-methyl-1H-pyrazol-4-yl)-1H-pyrazolo[4,3-b]pyridin-3-yl)-3H-imidazo[4,5-c]pyridin-7-yl)benzyl)methanesulfonamide] | > 10 | 0 | > 10 | 3.8
CS(=O)(=O)NCc1cc(F)cc(-c2cncc3[nH]c(-c4n[nH]c5ccc(-c6cncc(NC(=O)CC7CCNCC7)c6)nc45)nc23)c1 [Compound 725, N-(5-(3-(7-(3-Fluoro-5-(methylsulfonamidomethyl)phenyl)-3H-imidazo[4,5-c]pyridin-2-yl)-1H-pyrazolo[4,3-b]pyridin-5-yl)pyridin-3-yl)-2-(piperidin-4-yl)acetamide] | > 10 | 14.6 | > 10 | 40.9
CN(C)CCNc1cc(F)cc(-c2cncc3[nH]c(-c4n[nH]c5ccc(-c6cncc(OCCN7CCCC7)c6)nc45)nc23)c1 [Compound 742, N^1-(3-Fluoro-5-(2-(5-(5-(2-(pyrrolidin-1-yl)ethoxy)pyridin-3-yl)-1H-pyrazolo[4,3-b]pyridin-3-yl)-3H-imidazo[4,5-c]pyridin-7-yl)phenyl)-N^2,N^2-dimethylethane-1,2-diamine] | > 10 | 8.2 | > 10 | 0
CN(C)CC(=O)Nc1cncc(-c2ccc3[nH]nc(-c4nc5c(-c6cccc(F)c6)cncc5[nH]4)c3n2)c1 [Compound 925, 2-(Dimethylamino)-N-(5-(3-(7-(3-fluorophenyl)-3H-imidazo[4,5-c]pyridin-2-yl)-1H-pyrazolo[4,3-b]pyridin-5-yl)pyridin-3-yl)acetamide] | > 10 | 16.1 | > 10 | 8.3
COc1cccc(-c2cncc3[nH]c(-c4n[nH]c5ccc(-c6cncc(NC(=O)Cc7ccccc7)c6)nc45)nc23)c1 [Compound 955, N-(5-(3-(7-(3-methoxylphenyl)-3H-imidazo[4,5-c]pyridin-2-yl)-1H-pyrazolo[4,3-b]pyridin-5-yl)pyridin-3-yl)-2-phenylacetamide] | > 10 | 2.7 | > 10 | 4.2
COc1cccc(-c2cncc3[nH]c(-c4n[nH]c5ccc(-c6cncc(NC(=O)CC(C)(C)C)c6)nc45)nc23)c1 [Compound 961, N-(5-(3-(7-(3-methoxylphenyl)-3H-imidazo[4,5-c]pyridin-2-yl)-1H-pyrazolo[4,3-b]pyridin-5-yl)pyridin-3-yl)-3,3-dimethylbutanamide] | > 10 | 0.4 | > 10 | 0
COc1cccc(-c2cncc3[nH]c(-c4n[nH]c5ccc(-c6cncc(NC(=O)C7CCCCC7)c6)nc45)nc23)c1 [Compound 967, N-(5-(3-(7-(3-Methoxylphenyl)-3H-imidazo[4,5-c]pyridin-2-yl)-1H-pyrazolo[4,3-b]pyridin-5-yl)pyridin-3-yl)cyclohexanecarboxamide] | > 10 | 10.8 | > 10 | 0
COc1cccc(-c2cncc3[nH]c(-c4n[nH]c5ccc(-c6cncc(OC7CCNCC7)c6)nc45)nc23)c1 [Compound 980, 3-(7-(3-Methoxylphenyl)-3H-imidazo[4,5-c]pyridin-2-yl)-5-(5-(piperidin-4-yloxy)pyridin-3-yl)-1H-pyrazolo[4,3-b]pyridine] | > 10 | 19.6 | 2.72 | –
NC1CN(c2cncc(-c3ccc4[nH]nc(-c5nc6c(-c7ccc(Cl)s7)cncc6[nH]5)c4n3)n2)C1 [Compound 1023, 1-(6-(3-(7-(5-Chlorothiophen-2-yl)-3H-imidazo[4,5-c]pyridin-2-yl)-1H-pyrazolo[4,3-b]pyridin-5-yl)pyrazin-2-yl)azetidin-3-amine] | > 10 | 7.4 | 6.19 | –
c1cc2c(cc1-c1cncc3[nH]c(-c4n[nH]c5ccc(C6CCNCC6)nc45)nc13)OCO2 [Compound 1063, 3-(7-(Benzo[d][1,3]dioxol-5-yl)-3H-imidazo[4,5-c]pyridin-2-yl)-5-(piperidin-4-yl)-1H-pyrazolo[4,3-b]pyridine] | > 10 | 4.8 | > 10 | 31.3

More lines, main results first:

EC50 (SW480 colon cancer cells) [µM] | Structure (SMILES) | inhibition at 10 µM (SW480 colon cancer cells) [%] | EC50 [1] [µM] | inhibition at 10 µM [1] [%]
> 10 | Oc1cncc(-c2ccc3[nH]nc(-c4nc5c(-c6cccc(F)c6)cncc5[nH]4)c3n2)c1 [Compound 489, 5-(3-(7-(3-Fluorophenyl)-3H-imidazo[4,5-c]pyridin-2-yl)-1H-pyrazolo[4,3-b]pyridin-5-yl)pyridin-3-ol] | 3.7 | 2.31 | –
> 10 | Fc1cccc(-c2cncc3[nH]c(-c4n[nH]c5ccc(-c6cnccn6)nc45)nc23)c1 [Compound 492, 3-(7-(3-Fluorophenyl)-3H-imidazo[4,5-c]pyridin-2-yl)-5-(pyrazin-2-yl)-1H-pyrazolo[4,3-b]pyridine] | 7.5 | > 10 | 0
> 10 | Oc1cncc(-c2ccc3[nH]nc(-c4nc5c(-c6cccnc6)cncc5[nH]4)c3n2)c1 [Compound 537, 5-(3-(7-(Pyridin-3-yl)-3H-imidazo[4,5-c]pyridin-2-yl)-1H-pyrazolo[4,3-b]pyridin-5-yl)pyridin-3-ol] | 7.6 | > 10 | 49.8
> 10 | c1cc(-c2cncc3[nH]c(-c4n[nH]c5ccc(-c6cncc(OC7CCNCC7)c6)nc45)nc23)ccn1 [Compound 548, 5-(5-(Piperidin-4-yloxy)pyridin-3-yl)-3-(7-(pyridin-4-yl)-3H-imidazo[4,5-c]pyridin-2-yl)-1H-pyrazolo[4,3-b]pyridine] | 10.3 | 2.47 | –
> 10 | c1ccc(COc2cncc(-c3ccc4[nH]nc(-c5nc6c(-c7ccncc7)cncc6[nH]5)c4n3)c2)cc1 [Compound 554, 5-(5-(Benzyloxy)pyridin-3-yl)-3-(7-(pyridin-4-yl)-3H-imidazo[4,5-c]pyridin-2-yl)-1H-pyrazolo[4,3-b]pyridine] | 0 | 1.03 | –
> 10 | c1cc(-c2cncc3[nH]c(-c4n[nH]c5ccc(-c6cnccn6)nc45)nc23)ccn1 [Compound 556, 5-(Pyrazin-2-yl)-3-(7-(pyridin-4-yl)-3H-imidazo[4,5-c]pyridin-2-yl)-1H-pyrazolo[4,3-b]pyridine] | 13.7 | 0.014 | –
> 10 | COc1cccc(-c2cncc3[nH]c(-c4n[nH]c5ccc(-c6cccnc6)nc45)nc23)c1 [Compound 949, 3-(7-(3-Methoxylphenyl)-3H-imidazo[4,5-c]pyridin-2-yl)-5-(pyridin-3-yl)-1H-pyrazolo[4,3-b]pyridine] | 6.9 | 6.53 | –
> 10 | COc1cccc(-c2cncc3[nH]c(-c4n[nH]c5ccc(-c6cn[nH]c6)nc45)nc23)c1 [Compound 975, 3-(7-(3-Methoxylphenyl)-3H-imidazo[4,5-c]pyridin-2-yl)-5-(1H-pyrazol-4-yl)-1H-pyrazolo[4,3-b]pyridine] | 4.1 | > 10 | 43.2
> 10 | COc1cccc(-c2cncc3[nH]c(-c4n[nH]c5ccc(-c6cncc(O)c6)nc45)nc23)c1 [Compound 985, 5-(3-(7-(3-Methoxylphenyl)-3H-imidazo[4,5-c]pyridin-2-yl)-1H-pyrazolo[4,3-b]pyridin-5-yl)pyridin-3-ol] | 7.1 | 2.35 | –
